The source of these data is US10329242B2, “Process for purifying long chain amino acids” (VITAWORKS IP, LLC, priority 2017, dated 2019).

Counter-ions that a name gives are not always drawn.

Data set [1] can be described thus: Solubility of bisulfate salts in 1 M solution of sulfuric acid. Format: physicochemical. The conditions noted are these: for solubility: temperature below 40° C.; for solubility change with temperature: temperature increased from 60° C. to 80° C. and above.
A short description of data set [2]: Solubility in water and aqueous solution of acetic acid. The conditions noted are these: aqueous solution of 10% (wt/wt) acetic acid at 80° C. It is filed as physicochemical.

With `NCCCCCCCCCCC(=O)O` [11-aminoundecanoic acid], the solubility entry was “negligible solubility” in data set [1] and “up to 45 % (wt/wt)” in data set [2]. For the same molecule, in data set [1], the “solubility change with temperature” value is on record as “drastically increased”.

As for `NCCCCCCCCCCCC(=O)O` [bisulfate salt of 12-aminolauric acid, 12-aminolauric acid], in data set [1], the solubility result was “negligible solubility” and the “solubility change with temperature” value is listed as “drastically increased”.
